Test results from ChEMBL document CHEMBL4229511, “Synthesis and biological activity investigation of azole and quinone hybridized phosphonates” (Bioorg Med Chem Lett, 2018).
Converted amounts (≈) assume the structure as drawn.

Assays:
Candida albicans [1] = experiment: Antifungal activity against Candida albicans ATCC 64124 by CLSI […] protocol based method; format: functional
Aspergillus flavus = experiment: Antifungal activity against Aspergillus flavus by CLSI […] protocol based method; format: functional
Rhodotorula mucilaginosa = experiment: Antifungal activity against Rhodotorula pilimanae by CLSI […] protocol based method; format: functional
Fusarium graminearum = experiment: Antifungal activity against Fusarium graminearum by CLSI […] protocol based method; format: functional
Cryptococcus neoformans = experiment: Antifungal activity against Cryptococcus neoformans H99 by CLSI […] protocol based method; format: functional; conditions: var grubii H99
Candida albicans [2] = experiment: Antifungal activity against Candida albicans MYA2876 by CLSI […] protocol based method; format: functional
Staphylococcus aureus [3] = experiment: Antibacterial activity against Staphylococcus aureus ATCC 43300 after 18 hrs; format: functional; conditions: ATCC 43300, 18 h
HeLa [4] = experiment: Cytotoxicity against human HeLa cells after 24 hrs by MTT assay; format: cell-based
Escherichia coli = experiment: Antibacterial activity against Escherichia coli ATCC 25922 after 18 hrs; format: functional; conditions: ATCC 25922, 18 h
Staphylococcus aureus [5] = experiment: Antibacterial activity against Staphylococcus aureus ATCC 25923 after 18 hrs; format: functional; conditions: ATCC 25923, 18 h
HeLa [6] = experiment: Cytotoxicity against human HeLa cells up to 10 ug/ml after 24 hrs by MTT assay; format: cell-based
Staphylococcus aureus [7] = experiment: Antibacterial activity against Staphylococcus aureus ATCC 33591 after 18 hrs; format: functional; conditions: ATCC 33591, 18 h

| Compound | MIC (Candida albicans [1]) [µg/mL] | MIC (Aspergillus flavus) [µg/mL] | MIC (Rhodotorula mucilaginosa) [µg/mL] | MIC (Fusarium graminearum) [µg/mL] | MIC (Cryptococcus neoformans) [µg/mL] | MIC (Candida albicans [2]) [µg/mL] | MIC (Staphylococcus aureus [3]) [µg/mL] | IC50 (HeLa [4]) [µg/mL] | MIC (Escherichia coli) [µg/mL] | MIC (Staphylococcus aureus [5]) [µg/mL] | Activity (HeLa [6]) | MIC (Staphylococcus aureus [7]) [µg/mL] |
| --- | --- | --- | --- | --- | --- | --- | --- | --- | --- | --- | --- | --- |
| CCCCCCCCS(=O)(=O)OC[C@H]1O[C@H](O[C@@H]2[C@@H](O)[C@H](O[C@H]3O[C@H](CN)[C@@H](O)[C@H](O)[C@H]3O)[C@@H](N)C[C@H]2N)[C@H](O)[C@@H](N)[C@@H]1O | 256 (≈ 387 µM) | > 256 | 4 (≈ 6.05 µM) | 32 (≈ 48.4 µM) | 4 (≈ 6.05 µM) | 64 (≈ 96.9 µM) | – | – | – | – | – | – |
| CCOP(=O)(CCCCCCCCCCn1nnc2c1C(=O)c1ccccc1C2=O)OCC | > 128 | – | > 128 | 0.5 (≈ 1.05 µM) | > 128 | > 128 | 16 to 64 (≈ 33.6 to 135 µM) | 65.7 (≈ 138 µM) | > 128 | > 128 | Non-Toxic | 64 (≈ 135 µM) |
| O=C1c2ccccc2C(=O)c2c1nnn2CCCP(=O)([O-])[O-].[K+].[K+] | 32 | 16 to 32 | 32 | 32 | 32 | 32 | 64 to 128 | 88 | > 256 | 32 | Non-Toxic | 128 |
| CCOP(=O)(CCCCn1nnc2c1C(=O)c1ccccc1C2=O)OCC | > 128 | > 128 | 128 (≈ 327 µM) | 8 (≈ 20.4 µM) | 32 (≈ 81.8 µM) | > 128 | 64 to 128 (≈ 164 to 327 µM) | 9.11 (≈ 23.3 µM) | > 128 | 128 (≈ 327 µM) | – | 128 (≈ 327 µM) |
| CCOP(=O)(CCCCCCn1nnc2c1C(=O)c1ccccc1C2=O)OCC | > 128 | > 128 | 64 to 128 (≈ 153 to 305 µM) | 4 (≈ 9.54 µM) | 32 (≈ 76.3 µM) | > 128 | 32 to 64 (≈ 76.3 to 153 µM) | 47 (≈ 112 µM) | > 128 | 32 to 64 (≈ 76.3 to 153 µM) | – | 64 (≈ 153 µM) |
| O=C1c2ccccc2C(=O)c2c1nnn2CCCCCCCCP(=O)([O-])[O-].[K+].[K+] | 16 to 32 | 8 to 16 | > 128 | 32 | 32 | 8 to 16 | > 256 | 95.3 | > 256 | 64 | Non-Toxic | 256 |
| CCOP(=O)(CCn1nnc2c1C(=O)c1ccccc1C2=O)OCC | > 128 | 64 to 128 (≈ 176 to 352 µM) | 64 to 128 (≈ 176 to 352 µM) | 16 (≈ 44 µM) | 16 (≈ 44 µM) | > 128 | 64 (≈ 176 µM) | 13.8 (≈ 38.1 µM) | > 128 | 64 (≈ 176 µM) | – | 64 (≈ 176 µM) |
| CCOP(=O)(CCCn1nnc2c1C(=O)c1ccccc1C2=O)OCC | > 128 | 64 to 128 (≈ 170 to 339 µM) | 64 to 128 (≈ 170 to 339 µM) | 16 (≈ 42.4 µM) | 16 (≈ 42.4 µM) | > 128 | 64 to 128 (≈ 170 to 339 µM) | 6.97 (≈ 18.5 µM) | > 128 | 64 (≈ 170 µM) | – | 64 (≈ 170 µM) |
| O=C1c2ccccc2C(=O)c2c1nnn2CCCCCCP(=O)([O-])[O-].[K+].[K+] | 32 to 64 | 64 | 128 | 64 | 64 | 32 to 64 | 64 | 73.6 | > 256 | 32 to 64 | Non-Toxic | 64 |
| O=C1c2ccccc2C(=O)c2c1nnn2CCCCCCCCCCP(=O)([O-])[O-].[K+].[K+] | 128 | – | 64 | 32 | 32 | 128 | > 256 | > 100 | > 256 | 32 to 64 | Non-Toxic | > 256 |
| O=C1c2ccccc2C(=O)c2c1nnn2CCP(=O)([O-])[O-].[K+].[K+] | > 128 | > 128 | 128 | 32 | 64 | > 128 | 128 | 91.8 | > 256 | 32 | Non-Toxic | 128 |
| CCOP(=O)(CCCCCCCCn1nnc2c1C(=O)c1ccccc1C2=O)OCC | > 128 | > 128 | > 128 | 1 to 2 (≈ 2.23 to 4.47 µM) | > 128 | > 128 | 16 to 32 (≈ 35.8 to 71.5 µM) | 52 (≈ 116 µM) | > 128 | 64 (≈ 143 µM) | Non-Toxic | 32 (≈ 71.5 µM) |
| C[C@@H](c1ncncc1F)[C@](O)(Cn1cncn1)c1ccc(F)cc1F [VORICONAZOLE] | > 256 | 1 (≈ 2.86 µM) | 8 (≈ 22.9 µM) | 32 (≈ 91.6 µM) | 0.125 (≈ 0.358 µM) | 0.125 (≈ 0.358 µM) | – | – | – | – | – | – |
